{"source": "patent US20230143612A1", "about": "(Arbutus Biopharma Corporation, priority 2020, published 2023)"}
{"biological_target": "PD-L1 His protein / PD-1 Fc protein (Homo sapiens, UniProt Q9NZQ7)", "sequence (Q9NZQ7 19-238 limits assumed)": "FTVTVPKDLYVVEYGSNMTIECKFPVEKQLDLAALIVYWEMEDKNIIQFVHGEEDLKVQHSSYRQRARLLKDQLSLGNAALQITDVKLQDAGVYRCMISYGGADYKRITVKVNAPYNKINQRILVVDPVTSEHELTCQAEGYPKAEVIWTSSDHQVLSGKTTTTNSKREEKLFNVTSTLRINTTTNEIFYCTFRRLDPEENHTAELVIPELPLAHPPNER", "experiment": "HTRF Assay (PD-1/PD-L1 interaction)", "type": "binding", "conditions": "PD-L1 His 6 nM, PD-1 Fc 6 nM", "procedure,_shortened": "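HTRF: PD-L1 His (6 nM final), compound (3-fold dilutions, 20 μM to 0.001 μM final) and PD-1 Fc (6 nM final) preincubated 15 min at room temperature. Anti-human IgG-XL665 and anti-6HIS Tb cryptate (mixed at 6.7 nM and 0.35 nM) then added for 1 h at room temperature before reading.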", "units": {"IC50": "nM"}}
{"smiles": "COc1nc(-c2cccc(-c3cccc(-c4ccn5c(=O)c(CNC[C@@H]6CCC(=O)N6)cnc5c4)c3Cl)c2Cl)ccc1CN1CC[C@H](C(=O)O)C1", "note": "[Example 118, (S)-1-((6-(2,2′-Dichloro-3′-(4-oxo-3-(((((S)-5-oxopyrrolidin-2-yl)methyl)amino)methyl)-4H-pyrido[1,2-a]pyrimidin-8-yl)-[1,1′-biphenyl]-3-yl)-2-methoxypyridin-3-yl)methyl)pyrrolidine-3-carboxylic acid]", "IC50": 0.2}
{"smiles": "COc1nc(-c2cccc(-c3cccc(-c4ccn5c(=O)c(CNC[C@@H]6CCC(=O)N6)cnc5c4)c3Cl)c2Cl)ccc1C1=NCCC(C(=O)O)N1", "note": "(mixture of isomers) [Example 180, 2-(6-(2,2′-Dichloro-3′-(4-oxo-3-(((((S)-5-oxopyrrolidin-2-yl)methyl)amino)methyl)-4H-pyrido[1,2-a]pyrimidin-8-yl)-[1,1′-biphenyl]-3-yl)-2-methoxypyridin-3-yl)-3,4,5,6-tetrahydropyrimidine-4-carboxylic acid]", "IC50": 0.9}
{"smiles": "Cc1c(-c2ccn3c(=O)c(CNCCO)cnc3c2)cccc1-c1cccc(-c2ccn3c(=O)c(CNCCO)cnc3c2)c1C", "note": "[Example 15, 8,8′-(2,2′-Dimethyl-[1,1′-biphenyl]-3,3′-diyl)bis(3-(((2-hydroxyethyl)amino)methyl)-4H-pyrido[1,2-a]pyrimidin-4-one)]", "IC50": 60}
{"smiles": "COc1nc(-c2cccc(-c3cccc(-c4ccn5c(=O)c(CNC[C@@H]6CCC(=O)N6)cnc5c4)c3C)c2Cl)cnc1CNC[C@@H]1CCC(=O)N1", "note": "[Example 36, 8-(2′-Chloro-3′-(6-methoxy-5-(((((S)-5-oxopyrrolidin-2-yl)methyl)amino)methyl)pyrazin-2-yl)-2-methyl-[1,1′-biphenyl]-3-yl)-3-(((((S)-5-oxopyrrolidin-2-yl)methyl)amino)methyl)-4H-pyrido[1,2-a]pyrimidin-4-one]", "IC50": 1.5}
{"smiles": "COc1nc(-c2cccc(-c3cccc(-c4ccn5c(Cl)c(CNCCO)nc5c4)c3Cl)c2Cl)ccc1CNCCO", "note": "[Example 383, 2-[[6-[2-Chloro-3-[2-chloro-3-[3-chloro-2-[(2-hydroxyethylamino)methyl]imidazo[1,2-a]pyridin-7-yl]phenyl]phenyl]-2-methoxy-3-pyridyl]methylamino]etanol]", "IC50": 40}
{"smiles": "COc1nc(-c2cccc(-c3cccc(-c4ccn5c(=O)c(CNC6CC7(CCNC7=O)C6)cnc5c4)c3Cl)c2Cl)ccc1CNC[C@@H]1CCC(=O)N1", "note": "(single isomer, unassigned) [Example 250]", "IC50": 1}
{"smiles": "COc1nc(-c2cccc(-c3cccc(-c4cc5c(cn4)c(CNC[C@@H]4CCC(=O)N4)cn5C)c3Cl)c2Cl)ccc1CNC[C@@H]1CCC(=O)N1", "note": "[Example 402, (S)-5-((((6-(2,2′-Dichloro-3′-(1-methyl-3-(((((S)-5-oxopyrrolidin-2-yl)methyl)amino)methyl)-1H-pyrrolo[3,2-c]pyridin-6-yl)-[1,1′-biphenyl]-3-yl)-2-methoxypyridin-3-yl)methyl)amino)methyl)pyrrolidin-2-one]", "IC50": 50}
{"smiles": "COc1nc(-c2cccc(-c3cccc(-c4cc5c(=O)n(C)c(CNC[C@H](C)OC)nn5c4)c3Cl)c2Cl)ccc1CNC[C@@H]1CCC(=O)N1", "note": "[Example 475, 6-[2-Chloro-3-[2-chloro-3-[6-methoxy-5-[[[(2S)-5-oxopyrrolidin-2-yl]methylamino]methyl]-2-pyridyl]phenyl]phenyl]-2-[[[(2S)-2-methoxypropyl]amino]methyl]-3-methyl-pyrrolo[2,1-f][1,2,4]triazin-4-one]", "IC50": 530}
{"smiles": "COc1nc(-c2cccc(-c3cccc(-c4ccn5c(=O)c(CNCC(O)C6CC6)cnc5c4)c3Cl)c2Cl)ccc1CNC[C@@H]1CCC(=O)N1", "note": "(mixture of isomers) [Example 274, 3-(((2-Cyclopropyl-2-hydroxyethyl)amino)methyl)-8-(2,2′-dichloro-3′-(6-methoxy-5-(((((S)-5-oxopyrrolidin-2-yl)methyl)amino)methyl)pyridin-2-yl)-[1,1′-biphenyl]-3-yl)-4H-pyrido[1,2-a]pyrimidin-4-one]", "IC50": 65}
{"smiles": "O=C1CC[C@@H](CNCc2cnc3cc(-c4cccc(-c5cccc(-c6ccc7c(n6)OCCNC7)c5Cl)c4Cl)ccn3c2=O)N1", "note": "[Example 261, (S)-8-(2,2′-Dichloro-3′-(2,3,4,5-tetrahydropyrido[3,2-f][1,4]oxazepin-8-yl)-[1,1′-biphenyl]-3-yl)-3-((((5-oxopyrrolidin-2-yl)methyl)amino)methyl)-4H-pyrido[1,2-a]pyrimidin-4-one]", "IC50": 250}
{"smiles": "Cc1c(COc2cc(OCc3cncc(C#N)c3)c(CN3CCCC[C@H]3C(=O)O)cc2Cl)cccc1-c1cccc(-c2ccn3c(=O)c(CN4CCCC[C@H]4C(=O)O)cnc3c2)c1C", "note": "[Example 11, (S)-1-((8-(3′-((4-(((S)-2-Carboxypiperidin-1-yl)methyl)-2-chloro-5-((5-cyanopyridin-3-yl)methoxy)phenoxy)methyl)-2,2′-dimethyl-[1,1′-biphenyl]-3-yl)-4-oxo-4H-pyrido[1,2-a]pyrimidin-3-yl)methyl)piperidine-2-carboxylic acid]", "IC50": 0.6}
{"smiles": "COc1nc(-c2cccc(-c3cccc(-c4ccn5c(=O)c(CN[C@H]6C[C@@](C)(O)C6)c(C)nc5c4)c3Cl)c2Cl)ccc1CNC[C@@H]1CCC(=O)N1", "note": "[Example 229, 8-(2,2′-Dichloro-3′-(6-methoxy-5-(((((S)-5-oxopyrrolidin-2-yl)methyl)amino)methyl)pyridin-2-yl)-[1,1′-biphenyl]-3-yl)-3-((((1s,3s)-3-hydroxy-3-methylcyclobutyl)amino)methyl)-2-methyl-4H-pyrido[1,2-a]pyrimidin-4-one]", "IC50": 6.9}
{"smiles": "COc1nc(-c2cccc(-c3cccc(-c4ccn5c(=O)c(CNC[C@@H]6CCC(=O)N6)cnc5c4)c3C(F)(F)F)c2Cl)ccc1CNC[C@@H]1CCC(=O)N1", "note": "[Example 208, 8-(2′-Chloro-3′-(6-methoxy-5-(((((S)-5-oxopyrrolidin-2-yl)methyl)amino)methyl)pyridin-2-yl)-2-(trifluoromethyl)-[1,1′-biphenyl]-3-yl)-3-(((((S)-5-oxopyrrolidin-2-yl)methyl)amino)methyl)-4H-pyrido[1,2-a]pyrimidin-4-one]", "IC50": 38}
{"smiles": "COc1nc(-c2cccc(-c3cccc(-c4ccn5c(=O)c(C)c(CN[C@H]6C[C@](C)(O)C6)nc5c4)c3Cl)c2Cl)ccc1CNC[C@@H]1CCC(=O)N1", "note": "[Example 373, 8-(2,2′-Dichloro-3′-(6-methoxy-5-(((((S)-5-oxopyrrolidin-2-yl)methyl)amino)methyl)pyridin-2-yl)-[1,1′-biphenyl]-3-yl)-2-((((1r,3r)-3-hydroxy-3-methylcyclobutyl)amino)methyl)-3-methyl-4H-pyrido[1,2-a]pyrimidin-4-one]", "IC50": 33}
{"smiles": "COC(=O)CNCc1cnc2cc(-c3cccc(-c4cccc(-c5ccc(CNC[C@@H]6CCC(=O)N6)c(OC)n5)c4Cl)c3Cl)ncc2c1", "note": "[Example 305, (S)-Methyl 2-(((7-(2,2′-dichloro-3′-(6-methoxy-5-((((5-oxopyrrolidin-2-yl)methyl)amino)methyl)pyridin-2-yl)-[1,1′-biphenyl]-3-yl)-1,6-naphthyridin-3-yl)methyl)amino)acetate]", "IC50": 0.4}
{"smiles": "COc1nc(-c2cccc(-c3cccc(-c4ccn5c(=O)c(CNCCO)cnc5c4)c3Cl)c2Cl)cc(Cl)c1CNC[C@@H]1CCC(=O)N1", "note": "[Example 378, (S)-8-(2,2′-Dichloro-3′-(4-chloro-6-methoxy-5-((((5-oxopyrrolidin-2-yl)methyl)amino)methyl)pyridin-2-yl)-[1,1′-biphenyl]-3-yl)-3-(((2-hydroxyethyl)amino)methyl)-4H-pyrido[1,2-a]pyrimidin-4-one]", "IC50": 110}
{"smiles": "COc1nc(-c2cccc(-c3cccc(-c4ccc5c(n4)CCCC5NC[C@H](C)O)c3Cl)c2Cl)ccc1CNC[C@@H]1CCC(=O)N1", "note": "(mixture of isomers) [Example 390, (5S)-5-((((6-(2,2′-Dichloro-3′-(5-(((S)-2-hydroxypropyl)amino)-5,6,7,8-tetrahydroquinolin-2-yl)-[1,1′-biphenyl]-3-yl)-2-methoxypyridin-3-yl)methyl)amino)methyl)pyrrolidin-2-one]", "IC50": 6.5}
{"smiles": "COc1nc(-c2cccc(-c3cccc(-c4cc(C)n5c(=O)c(C6=NCC(O)CN6)cnc5c4)c3Cl)c2Cl)ccc1CNC[C@@H]1CCC(=O)N1", "note": "(stereo partly drawn) [Example 323, 8-(2,2′-Dichloro-3′-(6-methoxy-5-(((((S)-5-oxopyrrolidin-2-yl)methyl)amino)methyl)pyridin-2-yl)-[1,1′-biphenyl]-3-yl)-3-(5-hydroxy-1,4,5,6-tetrahydropyrimidin-2-yl)-6-methyl-4H-pyrido[1,2-a]pyrimidin-4-one]", "IC50": 5.9}
{"smiles": "COc1nc(-c2cccc(-c3cccc(-c4ccc5nc(CNC[C@@H]6CCC(=O)N6)cn5n4)c3Cl)c2Cl)ccc1CNC[C@@H]1CCC(=O)N1", "note": "[Example 338, (5S)-5-[[[6-[2-Chloro-3-[2-chloro-3-[2-[[[(2S)-5-oxopyrrolidin-2-yl]methylamino]methyl]imidazo[1,2-b]pyridazin-6-yl]phenyl]phenyl]-2-methoxy-3-pyridyl]methylamino]methyl]pyrrolidin-2-one]", "IC50": 0.3}
{"smiles": "COc1nc(-c2cccc(-c3cccc(-c4ccn5c(=O)c(CN6CC(CO)C6)cnc5c4)c3Cl)c2Cl)ccc1CN1CC(C(=O)O)C1", "note": "[Example 136, 1-((6-(2,2′-Dichloro-3′-(3-((3-(hydroxymethyl)azetidin-1-yl)methyl)-4-oxo-4H-pyrido[1,2-a]pyrimidin-8-yl)-[1,1′-biphenyl]-3-yl)-2-methoxypyridin-3-yl)methyl)azetidine-3-carboxylic acid]", "IC50": 0.2}
{"smiles": "COc1nc(-c2cccc(-c3cccc(-c4ccn5c(=O)c(CNC[C@@H]6CCC(=O)N6)cnc5c4)c3Cl)c2C(F)(F)F)ccc1CNC[C@@H]1CCC(=O)N1", "note": "[Example 95, 8-(2-Chloro-3′-(6-methoxy-5-(((((S)-5-oxopyrrolidin-2-yl)methyl)amino)methyl)pyridin-2-yl)-2′-(trifluoromethyl)-[1,1′-biphenyl]-3-yl)-3-(((((S)-5-oxopyrrolidin-2-yl)methyl)amino)methyl)-4H-pyrido[1,2-a]pyrimidin-4-one]", "IC50": 23}
